Tests used:
[1] = tested on: Blood Pressure and Heart Rate; assay: Effects on Blood Pressure and Heart Rate in the Anesthetized Cat; format: in vivo; settings: intravenous, 0.01 to 10.0 mcg/kg, scored only on hypotension; for ED (50 mmHg): Felis catus, read-out: Test D Activity Value (ED50 mmHg, decrease in blood pressure);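 on all read-outs here: Anesthetized cats given intravenous doses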
Protocol: The acute effects of test compounds on blood pressure and heart rate were determined in cats of either sex anesthetized with a mixture of pentobarbital sodium (35 mg/kg, i.v.) and barbital sodium (100 mg/kg, i.v.). Cannulas were placed in the trachea to allow adequate spontaneous ventilation, in a femoral artery for blood pressure recording with a strain gage transducer, and in a saphenous vein for drug administration. Heart rate was recorded by means of a cardiotachometer driven by the R wave of the electrocardiogram. After a period of 10 minutes of stable recordings of blood pressure and heart rate, the test compound was administered intravenously at doses increasing from 0.01 to 10.0 mcg/kg, spaced one log and injected at 10 minutes intervals. All doses were injected in a volume of 0.1 ml/kg. Modifications of blood pressure and heart rate induced by the test compound were expressed both in absolute units (mmHg and beats/minutes) and as percent of values recorded immediately before administration of each dose. Biphasic responses were tabulated in the order in which they occur. The direction of the observed changes was also noted (+ for increases and - for decreases).
Activity of compounds in this test was judged only on the basis of the degree of hypotension observed. Thus, the ED50 mmHg (dose decreasing blood pressure by 50 mmHg) was calculated graphically and the compound scored according to the following scale: […]

[2] = tested on: Gastric Secretion; assay: Effects on Gastric Secretion in the Rat; format: in vivo; settings: pylorus-ligated rat, subcutaneous, 2 x 1.5 mg/kg (total 3.0 mg/kg), 4 hours
Protocol: A procedure based on that described by Lipmann (J. Pharm. Pharmacol., 21:335 [1968]) was used to assess the influence of test compounds on gastric secretion. Rats of one sex weighing 150 to 200 g were randomly divided into groups of six animals each and fasted for 48 hours previously to the experiments, water being available adlibitum. The animals were anesthetized with ether, the abdomen was opened through a midline incision and the pylorus was ligated. Test compounds were diluted from stock solution so as to administer a dose of 1.5 mg/kg in a volume equivalent to 1 ml/kg. Subcutaneous injections were applied immediately after surgery and again 2 hours later, so that a total dose of 3.0 mg/kg was administered. Dilutions were made with phosphate buffer (pH 7.38) as recommended by Lee et al. (Prostaglandins 3:29 [1973]), in order to insure adequate stability of drugs at the subcutaneous depot. Each compound was tested in one group of rats; an additional control group received only the vehicle.
Four hours after pyloric ligation the animals were killed with ether, the cardias ligated and the stomachs removed. The volume of gastric secretion was measured and the contents centrifuged at 500 rpm for 10 minutes. Total acid in the supernatant was titrated against a 0.1 N sodium hydroxide solution and the amount expressed in mEq.
Volume and total acid values of the treated group were compared with those of the controls by the "T" test. Antisecretory activity was scored according to the following scale: […]

[3] = tested on: rat colon; assay: Cascade Assay, colon (smooth muscle stimulant effect); format: cell-based; settings: superfused, 50% of maximum (PGF2α)
Protocol: (§1) The smooth muscle stimulant effects of test compounds were determined simultaneously in four different tissues that are known to be reactive to naturally occurring prostaglandins. Segments of rat stomach fundus, rat colon, chick rectum and rabbit aortic strip were obtained as described by: Vane, J. R., Brit. J. Pharmacol., 12: 344 (1957); Regoli, D. and Vane, J. R., Brit. J. Pharmacol., 23: 351 (1964); Mann, M. and West, G. B., Brit. J. Pharmacol., 5: 173 (1950); and Furchgott, R. F. and Bhadrakom, R., J. Pharmacol. Exper. Ther., 108: 129 (1953). One end of each preparation was tied to the bottom of a 10 ml tissue chamber and the other to a force displacement transducer (Grass FT-03) for continuous tension recording. The stomach, colon, and rectum segments were stretched to an initial tension of 1 g, while the aortic strip was subjected to 4 g. All preparations were left undisturbed for 1 hour prior to testing. The chambers were equipped with an external jacket through which water, maintained at 40° C, was circulated. Preparations were arranged one beneath the other in descending order (aorta, stomach, colon and rectum). Provision was made for bathing the four tissues successively so that they were superfused with the same fluid (Gaddum, H. J., Brit. J. Pharmacol., 6: 321 [1953]. The bathing fluid consisted of: Krebs bicarbonate solution aerated with a mixture of 95% O2 and 5% CO2 and warmed at 37° C; atropine sulphate (0.1 mcg/ml), phenoxybenzamine hydrochloride (0.1 mcg/ml), propranolol hydrochloride (3.0 mcg/ml), methysergide maleate (0.2 mcg/ml) and brompheniramine maleate (0.1 mcg/ml) were added to eliminate the possibility of smooth muscle responses being due to stimulation of cholinergic, adrenergic, serotonin or histamine receptors. The fluid was circulated by means of a roller pump and was allowed to drip over the preparations at a rate of 10 ml/minute.
(§2) Test compounds were diluted from stock solutions so as to administer quantities ranging from 0.001 100,000 ng in a volume of 0.5 ml. The compounds were applied by dripping on the uppermost tissue, at intervals of 10 to 20 minutes. Maximal increases in tension after each dose were measured and the results were used to plot dose-response curves. ED50 data (doses necessary to produce a response 50% of maximum) were then calculated graphically for each tissue.
(§3) Activity in each tissue was scored according to the following scale: […]

[4] = tested on: Femoral Blood Flow; assay: Effects on Femoral Blood Flow in the Dog; format: in vivo; settings: anesthetized mongrel dog, intraarterial, 0.001 to 10 mcg
Protocol: The peripheral vasodilator or constrictor effects of these compounds were determined in mongrel dogs of either sex, weighing between 10 and 20 kg anesthestized intravenously with 35 mg/kg of sodium pentobarbital. An external iliac artery was dissected immediately above the femoral arch for a length of approximately 5 cm and a previously calibrated, non-connulating electromagnetic flowmeter sensor with a lumen between 2.5 and 3.5 mm was placed snugly around the vessel. Cannulas were placed in a branch of the artery arising distally to the location of the flowmeter sensor for intraarterial drug administrations, in the contralateral femoral artery for systemic blood pressure recordings and in the trachea for artificial respiration with room air. Femoral blood flow and systemic blood pressure were continously recorded with an electromagnetic flowmeter and pressure tranducer, respectively.
After an adequate control period, test compounds were injected intraarterially at one log-spaced doses ranging from 0.001 to 10 mcg., in a volume of 0.5 ml and at 5 to 10 minute intervals. Maximum changes in bloodflow, as well as any variations in blood pressure, were tabulated for each dose in absolute values (ml/min. and mmHg). The calculations were made taking as control values those existing immediately before administration of each dose. The direction of the observed change (plus for increase and minus for decrease) was also noted. The dose changing bloodflow by 100 ml/min (ED100 ml/min) was calculated graphically and was used for scoring activity as follows: […]

[5] = tested on: rabbit aortic strip; assay: Cascade Assay, aorta (smooth muscle stimulant effect); format: cell-based; settings: superfused, 50% of maximum (PGA2)
Protocol: as §1, §2, §3

[6] = tested on: chick rectum; assay: Cascade Assay, rectum (smooth muscle stimulant effect); format: cell-based; settings: superfused, 50% of maximum (PGE1)
Protocol: as §1, §2, §3

[7] = tested on: rat stomach fundus; assay: Cascade Assay, stomach (smooth muscle stimulant effect); format: cell-based; settings: superfused, 50% of maximum (PGE1)
Protocol: as §1, §2, §3

[8] = tested on: Rat Uterus; assay: Effects on the Rat Uterus in Vitro; format: cell-based; settings: in vitro, 29° C, response 50% that of carbachol; for EC50: Rattus norvegicus, read-out: Test F Rat Uterus, Activity Value (ED50)
Protocol: The uterine stimulant effect of test compounds was determined in segments of uterus obtained from rats (140-160 g) pretreated subcutaneously with 1 mg/kg of diethyl-stilbesterol 18 hours before the experiment. The tissues were placed in 10 ml chambers filled with de-Jalon solution at 29° C, were aerated and bubbled with 95% O2 and 5% CO2, and were prepared for isometric recording with force displacement transducers. Preparations were stretched to an initial tension of 1 g and were left undisturbed for 30 minutes. Carbachol (1 mcg/ml) was then added to the bath and a response was recorded. After a 10 minute interval the carbachol procedure was repeated. Responses to increasing concentrations of a test compound (0.001 to 10 mcg/ml with one log intervals) were then recorded every 10 minutes. Preparations were washed four times after each response. All doses of compounds were administered in a 0.1 ml volume. Because it has been observed that the magnitude of the second response to carbachol (approximately 10% greater than the first) is close to the maximal response of the tissue, such value was taken as a measure of the sensitivity of a particular segment. Responses to each concentration of the test compound were expressed in terms of percentage of the second response to carbachol and the ED50 (dose producing a response 50% that of carbachol) was calculated graphically. Activity was scored according to the following scale: […]

Structure (SMILES)	ED (50 mmHg) [1] [mg/kg]	Test B Activity Value (% decrease in acidity, inhibition of gastric secretion) [2]	Test E Cascade Assay, Colon, Activity Value (ED50) [3]	Test C Activity Value (ED100 ml/min, increase in femoral blood flow) [4]	Test E Cascade Assay, Aorta, Activity Value (ED50) [5]	Test E Cascade Assay, Rectum, Activity Value (ED50) [6]	Test E Cascade Assay, Stomach, Activity Value (ED50) [7]	EC50 [8] [µg/mL]	Test D Activity Value (ED50 mmHg, decrease in blood pressure) [1]	Test F Rat Uterus, Activity Value (ED50) [8]
O=C(O)CCCCCC[C@H]1C(=O)CC[C@@H]1/C=C/[C@H](O)C1CCC2(CCCCC2)CC1 (relative stereo) [TR-4020, dl 7-{5-oxo-2R-[3R-hydroxy-3-(spiro[5.5]undecan-3-yl)-1E-propenyl]cyclopent-1R-yl}heptanoic acid]	> 0.01	0 (<26)	0 (>10000)	0 (>10.0)	0 (>10000)	0 (>10000)	2 (101 - 1000)	> 10	–	–
O=C(O)CCCCCC[C@H]1C(=O)CC[C@@H]1/C=C/[C@@H](O)C1CCC2(CCCCC2)CC1 (relative stereo) [TR-4021, dl 7-{5-oxo-2R-[3S-hydroxy-3-(spiro[5.5]undecan-3-yl)-1E-propenyl]cyclopent-1R-yl} heptanoic acid]	> 0.01	0 (<26)	0 (>10000)	0 (>10.0)	0 (>10000)	0 (>10000)	4 (<10)	> 10	–	–
O=C(O)CCCCCC[C@H]1C(=O)CC[C@@H]1/C=C/[C@H](O)C1CC2(CCC2)C1 (relative stereo) [TR-4137, dl 7-{5-oxo-2R-[3R-hydroxy-3-(spiro[3.3]hept-2-yl)-1E-propenyl]cyclopent-1R-yl}heptanoic acid]	0.00011 to 0.001	3 (51-75)	0 (>10000)	3 (0.01 - 0.1)	0 (>10000)	–	1 (1001 - 10000)	> 10	–	–
O=C(O)CCC/C=C\C[C@H]1C(=O)CC[C@@H]1/C=C/[C@@H](O)C1CC2(CCC2)C1 (relative stereo) [TR-4146, dl 7-{5-oxo-2R-[3S-hydroxy-3-(spiro[3.3]hept-2-yl)-1E-propenyl]cyclopent-1R-yl}hept-5Z-enoic acid]	> 0.01	0 (<26)	2 (101 - 1000)	0 (>10.0)	0 (>10000)	–	1 (1001 - 10000)	> 10	–	–
COC(=O)CCCCCC[C@H]1C(=O)C=C[C@H]1/C=C/[C@H](O)C1CC2(CCC2)C1 [TR-4127, Methyl 7-{5-oxo-2R-[3R-hydroxy-3-(spiro[3.3]hept-2-yl)-1E-propenyl]cyclopent-3-en-1R-yl}hepanoate]	–	–	0 (>10000)	–	0 (>10000)	0 (>10000)	0 (>10000)	–	0 (>10.0)	0 (>10)
COC(=O)CCCCCC[C@@H]1[C@@H](/C=C/[C@@H](O)C2CC3(CCC3)C2)[C@H](O)C[C@H]1O [TR-4138, Methyl 7-{3R, 5R-dihydroxy-2R-[3S-hydroxy-3-(spirol[3.3]hept-2-yl)-1E-propenyl]cyclopent-1R-yl}heptanoate]	> 0.01	–	0 (>10000)	–	0 (>10000)	0 (>10000)	0 (>10000)	> 10	–	–
